In patent US10869844B2, “Methods for the treatment of depression” (Janssen Pharmaceutica NV, priority 2014, dated 2020):
Where two headings read alike, the source gives them in different places.

Tested on: adult subjects with TRD
[1] = Met carriers, Day 18 after Day 17, all responders (Day 17)
[2] = Met carriers, Day 18 after Day 17, esketamine responders (Day 17) per Day 1 randomization
[3] = Val/Val (of 7), esketamine subjects per Day 1 randomization, 18 days after last dose
[4] = Val/Val, DAY 02, randomized to esketamine Day 1
[5] = Val/Val, DAY 07, randomized to esketamine Day 1
[6] = Val/Val, DAY 07, randomized to placebo Day 1, esketamine from day 4 onward
[7] = Val/Val, DAY 17, randomized to esketamine Day 1
[8] = Val/Val, DAY 17, randomized to placebo Day 1, esketamine from day 4 onward
[9] = Val/Val, DAY 35, randomized to esketamine Day 1
[10] = Val/Val, DAY 35, randomized to placebo Day 1, esketamine from day 4 onward
[11] = Val/Val, Day 0 after Day 17, all responders (Day 17)
[12] = Val/Val, Day 0 after Day 17, esketamine responders (Day 17) per Day 1 randomization
[13] = Val/Val, Day 11 after Day 17, all responders (Day 17)
[14] = esketamine subjects, Days 2, 7, 17 and 35

Q: What does the source list for CN[C@]1(c2ccccc2Cl)CCCCC1=O.Cl [Esketamine, (S)-2-(2-chlorophenyl)-2-(methylamino)cyclohexanone hydrochloride]?
A: Duration of response, survival function estimate: Failure [1]: 0.5714; Duration of response, survival function estimate: Survival [1]: 0.4286; Duration of response, survival function estimate: Failure [2]: 0.6667; Duration of response, survival function estimate: Survival [2]: 0.3333; Day 17 responders who maintained response status up to Day 35, % [3]: 100%; Day 17 responders who maintained response status up to Day 35, number [3]: 7; Non-remitters % [4]: 37.5%; Non-remitters No. [4]: 3; Non-responders % [4]: 25.0%; Non-responders No. [4]: 2; Remitters % (MADRS total score 10) [4]: 62.5%; Remitters No. (MADRS total score 10) [4]: 5; Responders % (MADRS total score reduction >50%) [4]: 75.0%; Responders No. (MADRS total score reduction >50%) [4]: 6; Non-remitters % [5]: 25.0%; Non-remitters No. [5]: 2; Non-responders % [5]: 25.0%; Non-responders No. [5]: 2; Remitters % (MADRS total score 10) [5]: 75.0%; Remitters No. (MADRS total score 10) [5]: 6; Responders % (MADRS total score reduction >50%) [5]: 75.0%; Responders No. (MADRS total score reduction >50%) [5]: 6; Non-remitters % [6]: 42.9%; Non-remitters No. [6]: 3; Non-responders % [6]: 28.6%; Non-responders No. [6]: 2; Remitters % (MADRS total score 10) [6]: 57.1%; Remitters No. (MADRS total score 10) [6]: 4; Responders % (MADRS total score reduction >50%) [6]: 71.4%; Responders No. (MADRS total score reduction >50%) [6]: 5; Non-remitters % [7]: 12.5%; Non-remitters No. [7]: 1; Non-responders % [7]: 12.5%; Non-responders No. [7]: 1; Remitters % (MADRS total score 10) [7]: 87.5%; Remitters No. (MADRS total score 10) [7]: 7; Responders % (MADRS total score reduction >50%) [7]: 87.5%; Responders No. (MADRS total score reduction >50%) [7]: 7; Non-remitters % [8]: 57.1%; Non-remitters No. [8]: 4; Non-responders % [8]: 28.6%; Non-responders No. [8]: 2; Remitters % (MADRS total score 10) [8]: 42.9%; Remitters No. (MADRS total score 10) [8]: 3; Responders % (MADRS total score reduction >50%) [8]: 71.4%; Responders No. (MADRS total score reduction >50%) [8]: 5; Non-remitters % [9]: 12.5%; Non-remitters No. [9]: 1; Non-responders % [9]: 12.5%; Non-responders No. [9]: 1; Remitters % (MADRS total score 10) [9]: 87.5%; Remitters No. (MADRS total score 10) [9]: 7; Responders % (MADRS total score reduction >50%) [9]: 87.5%; Responders No. (MADRS total score reduction >50%) [9]: 7; Non-remitters % [10]: 42.9%; Non-remitters No. [10]: 3; Non-responders % [10]: 42.9%; Non-responders No. [10]: 3; Remitters % (MADRS total score 10) [10]: 57.1%; Remitters No. (MADRS total score 10) [10]: 4; Responders % (MADRS total score reduction >50%) [10]: 57.1%; Responders No. (MADRS total score reduction >50%) [10]: 4; Duration of response, survival function estimate: Failure [11]: 0; Duration of response, survival function estimate: Survival [11]: 1.0000; Duration of response, survival function estimate: Failure [12]: 0; Duration of response, survival function estimate: Survival [12]: 1.0000; Duration of response, survival function estimate: Failure [13]: 0.0833; Duration of response, survival function estimate: Survival [13]: 0.9167; Subjects who remain well, number (Val/Val, by Day 35, of 7): 7; Responders on Day 17, number (all esketamine subjects per Day 1 randomization (Val/Val and Met carriers)): 13; Remit rates, Val/Val vs Met carriers [14]: remit rates were higher in Val/Val subjects than in Met carriers at all timepoints; Response rates, Val/Val vs Met carriers [14]: response rates were higher in Val/Val subjects than in Met carriers
